Measurements taken from patent publication US20060063784A1, “Method of using substituted pyrazolo [1,5-a] pyrimidines” (priority 2004, published 2006).
Where two headings read alike, the source gives them in different places.

Tested on: 80S14 (p21-deficient) cells
Assay: Cytotoxicity assay using isogenic cell lines: IC50 in 80S14 (p21-deficient) cells, SRB
Format: cell-based, human
Procedure: Cytotoxicity Assay Using Isogenic Cell Lines: • 1. 80S14 (p21-deficient) cells were cultured in RPMI 1640 medium (Gibco/Invitrogen Life technologies) supplemented with 10% fetal bovine serum (FBS, Gibco) and 10 μg/ml gentamycin (Gibco). Cells were maintained at 37° C. under 7% CO2 • 2. Cells were plated at 6×10^4/ml (0.2 ml/well; 12,000 cells/well) in 96-well microtiter plates (Falcon or Corning/Costar) and incubated at 37° C. overnight (18-24 hours). • 3. 2-5 μl of the test agent [200 μg/ml stock in 20% DMSO/20 mM HEPES, pH 7.5 (Gibco)] was added to each well to achieve a final concentration of 2-5 μg/ml. Cells were incubated with the test compounds for 5 days at 37° C. • 4. Surviving cells were fixed with 50 μl 50% trichloroacetic acid (Sigma; 10% final concentration) for 1 hour at 4° C. • 5. Plates were rinsed twice with water (0.3 ml per wash using MRD8 robot), and allowed to dry. • 6. Sulforhodamine B (SRB) (Sigma; 0.4% in 1% acetic acid, 50 μl per well; MRD8 robot) was added and plates kept at room temperature for 10 minutes. • 7. Excess dye was removed by washing with 1% acetic acid (3 times, 0.3 ml per wash; MRD8 robot) and allowed to dry. • 8. The dye was solubilized in Tris base (Sigma; 10 mM, 150 μl per well). Plates were kept at room temperature for 30 minutes to allow the dye to diffuse. • 9. Absorbance was measured at 540 nm. • 10. The percentage of cells surviving drug treatment relative to control wells (no drug) was determined. • 11. The difference in % cell survival between the two cell lines was calculated. • 12. Compounds producing a difference score of >50 were considered to be selective for the p21-deficient cells and were evaluated further: Determination of selectivity of compounds for p21−/− cells: • 1. 80S14 cells were cultured as described above. • 2. Cells were seeded in 96-well microtiter plates at 12,000 cells/well (either 0.15 ml/well of 8×10^4 cells/ml suspension, or 0.2 ml/well of 6×10^4 cells/ml suspension). Plates were incubated at 37° C. overnight (18-24 hours). • 3. Serial dilutions of the test agent were added to each well. Dilutions were prepared either in 40% DMSO/20% methanol/20 mM HEPES, pH 7.5 (Gibco) or directly in growth medium. One of two dose ranges were used: 5 pM to 50 μM or 170 pg/ml to 10 μg/ml. Cells were incubated with the test compounds for 5 days at 37° C. • 4. Surviving cells were fixed with 50 μl 50% trichloroacetic acid (Sigma; 10% final concentration) for 1 hour at 4° C. • 5. Plates were rinsed extensively in water, and allowed to dry. • 6. Sulforhodamine B (Sigma; 0.4% in 1% acetic acid, 70 μl per well) was added and plates kept at room temperature for 10 minutes. • 7. Excess dye was removed by washing 5 times with 1% acetic acid and plates were allowed to dry. • 8. The dye was solubilized in Tris base (Sigma; 10 mM, 150 μl per well). Plates were placed on a titer plate shaker (Lab Line Instruments) for 5 minutes to allow the dye to diffuse. • 9. Absorbance was measured at 560 nm.
10. The drug concentration that inhibits cell proliferation by 50% relative to untreated controls (IC50) was determined from cytotoxicity curves.

[1] = Homo sapiens, 120 h, 80S14 p21-deficient cells, 5 days incubation, SRB, read-out: IC50 for 80SI4
[2] = Homo sapiens, 80S14, 120 h, read-out: IC50 for 80SI4 (uM)
[3] = 80S14 p21-deficient cells, 5 days incubation, SRB, read-out: IC50 for 80SI4

SMILES | IC50 [1] | other results
Cn1cnc(S(=O)(=O)Nc2cccc(-c3ccnc4c(C(=O)c5cccs5)cnn34)c2)c1 [Example 39, 1-methyl-N-{3-[3-(thien-2-ylcarbonyl)pyrazolo[1,5-a]pyrimidin-7-yl]phenyl}-1H-imidazole-4-sulfonamide] | 10 to 50 µM | 
CN(C)S(=O)(=O)Nc1cccc(-c2ccnc3c(C(=O)c4cccs4)cnn23)c1 [Example 40, N,N-dimethyl-N′-{3-[3-(thien-2-ylcarbonyl)pyrazolo[1,5-a]pyrimidin-7-yl]phenyl}sulfamide] | 1 to 10 µM | 
CCOC(=O)C(=O)Nc1cccc(-c2ccnc3c(C(=O)c4cccs4)cnn23)c1 [Example 41, ethyl oxo({3-[3-(thien-2-ylcarbonyl)pyrazolo[1,5-a]pyrimidin-7-yl]phenyl}amino)acetate] | 10 to 50 µM | 
COC(=O)CCC(=O)Nc1cccc(-c2ccnc3c(C(=O)c4cccs4)cnn23)c1 [Example 42, methyl 4-oxo-4-({3-[3-(thien-2-ylcarbonyl)pyrazolo[1,5-a]pyrimidin-7-yl]phenyl}amino)butanoate] | 10 to 50 µM | 
C=C(C)C(=O)Nc1cccc(-c2ccnc3c(C(=O)c4cccs4)cnn23)c1 [Example 43, 2-methyl-N-{3-[3-(thien-2-ylcarbonyl)pyrazolo[1,5-a]pyrimidin-7-yl]phenyl}acrylamide] | < 1 µM | 
CC(C)=CC(=O)Nc1cccc(-c2ccnc3c(C(=O)c4cccs4)cnn23)c1 [Example 45, 3-methyl-N-{3-[3-(thien-2-ylcarbonyl)pyrazolo[1,5-a]pyrimidin-7-yl]phenyl}but-2-enamide] | < 1 µM | 
CC(C)CC(=O)Nc1cccc(-c2ccnc3c(C(=O)c4cccs4)cnn23)c1 [Example 47, 3-methyl-N-{3-[3-(thien-2-ylcarbonyl)pyrazolo[1,5-a]pyrimidin-7-yl]phenyl}butanamide] |  | IC50 [2]: < 1 µM
CC(C)(C)C(=O)Nc1cccc(-c2ccnc3c(C(=O)c4cccs4)cnn23)c1 [Example 48, 2,2-dimethyl-N-{3-[3-(thien-2-ylcarbonyl)pyrazolo[1,5-a]pyrimidin-7-yl]phenyl}propanamide] |  | IC50 [2]: < 1 µM
O=C(c1cccs1)c1cnn2c(-c3cccc(NC(=O)C(Cl)(Cl)Cl)c3)ccnc12 [Example 49, 2,2,2-trichloro-N-{3-[3-(thien-2-ylcarbonyl)pyrazolo[1,5-a]pyrimidin-7-yl]phenyl}acetamide] | 1 to 10 µM | 
CSCCC(=O)Nc1cccc(-c2ccnc3c(C(=O)c4cccs4)cnn23)c1 [Example 50, 3-(methylthio)-N-{3-[3-(thien-2-ylcarbonyl)pyrazolo[1,5-a]pyrimidin-7-yl]phenyl}propanamide] | < 1 µM | 
O=C(c1cccs1)c1cnn2c(-c3cccc(NC(=O)[C@@H]4CCCN4C(=O)C(F)(F)F)c3)ccnc12 [Example 52] |  | IC50 [3]: 1 to 10 µM
O=C(c1cccs1)c1cnn2c(-c3cccc(NC(=O)C45CC6CC(CC(C6)C4)C5)c3)ccnc12 [Example 53, N-{3-[3-(thien-2-ylcarbonyl)pyrazolo[1,5-a]pyrimidin-7-Yl]phenyl}adamantine-1-carboxamide] |  | IC50 [3]: < 1 µM
C=CCCC(=O)Nc1cccc(-c2ccnc3c(C(=O)c4cccs4)cnn23)c1 [Example 57, N-{3-[3-(thien-2-ylcarbonyl)pyrazolo[1,5-a]pyrimidin-7-yl]phenyl}pent-4-enamide] | < 1 µM | 
CC(CC(=O)Nc1cccc(-c2ccnc3c(C(=O)c4cccs4)cnn23)c1)C(F)(F)F (centres unmarked) [Example 59, 4,4,4-trifluoro-3-methyl-N-{3-[3-(thien-2-ylcarbonyl)pyrazolo[1,5-a]pyrimidin-7-yl]phenyl}butanamide] | < 1 µM | 
N#CCC(=O)Nc1cccc(-c2ccnc3c(C(=O)c4cccs4)cnn23)c1 [Example 60, 2-cyano-N-{3-[3-(thien-2-ylcarbonyl)pyrazolo[1,5-a]pyrimidin-7-yl]phenyl]acetamide] | < 1 µM | 
COCC(=O)Nc1cccc(-c2ccnc3c(C(=O)c4cccs4)cnn23)c1 [Example 61, 2-methoxy-N-{3-[3-(thien-2-ylcarbonyl)pyrazolo[1,5-a]pyrimidin-7-yl]phenyl]acetamide] | 1 to 10 µM | 
CC(=O)OCC(=O)Nc1cccc(-c2ccnc3c(C(=O)c4cccs4)cnn23)c1 [Example 62, 2-oxo-2-({3-[3-(thien-2-ylcarbonyl)pyrazolo[1.5-a]pyrimidin-7-yl]phenyl]amino)ethyl acetate] |  | IC50 [3]: 1 to 10 µM
COCCOCC(=O)Nc1cccc(-c2ccnc3c(C(=O)c4cccs4)cnn23)c1 [Example 63, 2-(2-methoxyethoxy)-N-{3-[3-(thien-2-ylcarbonyl)pyrazolo[1,5-a]pyrimidin-7-yl]phenyl}acetamide] | 1 to 10 µM | 
CN(C)CC(=O)Nc1cccc(-c2ccnc3c(C(=O)c4cccs4)cnn23)c1 [Example 64, N-2-N-2-dimethyl-N-1-{3-[3-(thien-2-ylcarbonyl)pyrazolo[1,5-a]pyrimidin-7-yl]phenyl}glycinamide] |  | IC50 [3]: 1 to 10 µM
CCN(CC)CCC(=O)Nc1cccc(-c2ccnc3c(C(=O)c4cccs4)cnn23)c1 [Example 65, N-3,N-3-diethyl-N-1-{3-[3-(thien-2-ylcarbonyl)pyrazolo[1,5-a]pyrimidin-7-yl]phenyl}-beta-alaninamide] |  | IC50 [3]: 10 to 50 µM
O=C(Cc1cccs1)Nc1cccc(-c2ccnc3c(C(=O)c4cccs4)cnn23)c1 [Example 66] |  | IC50 [3]: < 1 µM
O=C(CC1Cc2ccccc2C1)Nc1cccc(-c2ccnc3c(C(=O)c4cccs4)cnn23)c1 [Example 67, 2-(2,3-dihydro-1H-inden-2-yl)-N-{3-[3-(thien-2-ylcarbonyl)pyrazolo[1,5-a]pyrimidin-7-yl]phenyl}acetamide] | < 1 µM | 
Cc1ccccc1CC(=O)Nc1cccc(-c2ccnc3c(C(=O)c4cccs4)cnn23)c1 [Example 68, 2-(2-methylphenyl)-N-{3-[3-(thien-2-ylcarbonyl)pyrazolo[1,5-a]pyrimidin-7-yl]phenyl}acetamide] | < 1 µM | 
O=C(Cc1ccc2c(c1)OCO2)Nc1cccc(-c2ccnc3c(C(=O)c4cccs4)cnn23)c1 [Example 69, 2-(1,3-benzodioxol-5-yl)-N-{3-[3-(thien-2-ylcarbonyl)pyrazolo[1,5-a]pyrimidin-7-yl]phenyl}acetamide] | < 1 µM | 
O=C(Nc1cccc(-c2ccnc3c(C(=O)c4cccs4)cnn23)c1)c1cnc2ccccc2c1 [Example 70, N-{3-[3-(thien-2-ylcarbonyl)pyrazolo[1,5-a]pyrimidin-7-yl]phenyl}quinoline-3-carboxamide] | 1 to 10 µM | 
O=C(/C=C/c1ccccc1)Nc1cccc(-c2ccnc3c(C(=O)c4cccs4)cnn23)c1 [Example 71, (2E)-3-phenyl-N-{3-[3-(thien-2-ylcarbonyl)pyrazolo[1,5-a]pyrimidin-7-yl]phenyl}prop-2-enamide] | 1 to 10 µM | 
O=C(CC1CCCC1)Nc1cccc(-c2ccnc3c(C(=O)c4cccs4)cnn23)c1 [Example 73, 2-cyclopentyl-N-{3-[3-(thien-2-ylcarbonyl)pyrazolo[1,5-a]pyrimidin-7-yl]phenyl}acetamide] | < 1 µM | 
NCC(=O)Nc1cccc(-c2ccnc3c(C(=O)c4cccs4)cnn23)c1 [Example 77, N-1-{3-[3-(thien-2-ylcarbonyl)pyrazolo[1,5-a]pyrimidin-7-yl]phenyl}gylcinamide] |  | IC50 [3]: 10 to 50 µM
C[C@H](N)C(=O)Nc1cccc(-c2ccnc3c(C(=O)c4cccs4)cnn23)c1 [Example 78, N-1-{3-[3-(thien-2-ylcarbonyl)pyrazolo[1,5-a]pyrimidin-7-yl]phenyl}-L-alaninamide] |  | IC50 [3]: 1 to 10 µM
